Source: patent US9373800B2, “Organic light emitting element having lithium—boron complex” (CANON KABUSHIKI KAISHA, priority 2014, dated 2016)

Test: Evaluation of stability to water (100 nm deposited film, water dropped, thickness step height meter)
Assay type: physicochemical
Details: for State of the film after water was dropped, After 1 min / State of the film after water was dropped, After 10 min: 100 nm film deposited on glass substrate, water dropped onto film, Alpha-Step; for State of the film after water was dropped, After 1 min: after 1 minute; for Dissolution of the film in water (text summary of Table 1): film soaked in water
Method: Water was dropped onto the films, and the states of the films were examined after 1 minute and 10 minutes with a thickness step height meter (Alpha-Step).

Structure (SMILES) | State of the film after water was dropped, After 1 min | State of the film after water was dropped, After 10 min | Dissolution of the film in water (text summary of Table 1)
[F-].[Li+] [Comparative compound 1, lithium fluoride] | Dissolved | Dissolved | dissolved immediately
[Cs+].[F-] [Comparative compound 2, cesium fluoride] | Dissolved | Dissolved | dissolved immediately
[Li+].c1cnn([B-](n2cccn2)(n2cccn2)n2cccn2)c1 [Comparative compound 3] | Partially dissolved | Dissolved | gradually dissolved
